According to patent publication US8187635B2, “Pharmaceutical composition containing a pyrrolidone anticonvulsant agent and method for the preparation thereof” (Pharmathen S.A, priority 2007, dated 2012):
Like-named read-outs stand apart in the source and are kept apart here.

Legend:
[1] = cited from earlier work
[2] = Compatibility of Levetiracetam with excipients (impurity profile); format: physicochemical
Experimental: Levetiracetam was tested for its compatibility with several pharmaceutically acceptable excipients comprising the above mentioned properties.

[3] = cited from earlier work; remark: listed apart in the source

CC[C@@H](C(N)=O)N1CCCC1=O [Levetiracetam, S-enantiomer of α-ethyl-2-oxo-1-pyrrolidine acetamide]
bioavailability [1]: 100%
protein binding [1]: lack of protein binding
impurity profile of the active ingredient with excipient ([2]; with PVP): not acceptable
impurity profile of the active ingredient with excipient ([2]; with sodium starch glycolate (Primojel)): not acceptable
solubility ([3]; in acetonitrile): sparingly soluble
solubility ([3]; in chloroform): freely soluble
solubility ([3]; in methanol): freely soluble
solubility ([3]; in n-hexane): practically insoluble
solubility ([3]; in water): very soluble
